± gives the standard deviation of the averaged measurements.
Legend:
Assay in all cases: level (log10 ratio to DMSO vehicle control); higher = higher biomarker level / cell amount than vehicle control
[1] = compound: C=C(C)C(=O)OCCC(F)(F)C(F)(F)C(F)(F)C(F)(F)C(F)(F)C(F)(F)F [6:2 Fluorotelomer methacrylate]; conditions: in DMSO
Procedure: (§1)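 BioMAP Diversity Plus panel of 12 human primary cell co-culture systems (3C, 4H, LPS, SAg, BT, BF4T, BE3C, CASM3C, HDF3CGF, KF3CT, MyoF, Mphg). Compounds were added 1 h before stimulation and left for 24 h (MyoF 48 h; BT 72 h for soluble read-outs or 6 d for IgG). Biomarkers were read by ELISA, cytotoxicity by SRB, PBMC viability and proliferation by Alamar Blue. Each well value was divided by the mean of 8 DMSO control wells on the same plate and log10 transformed; duplicate blinded samples were tested at 4 concentrations.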

[2] = compound: C=CC(=O)OCC(F)(F)C(F)(F)C(F)(F)COC(=O)C=C [1H,1H,5H,5H-Perfluoro-1,5-pentanediol diacrylate]; conditions: 6700 nM; in DMSO
Procedure: as §1

[3] = compound: FC(F)(F)C(F)(F)C(F)(F)C(F)(F)C(F)(F)C(F)(F)C(F)(F)I [1-Iodopentadecafluoroheptane]; conditions: in DMSO
Procedure: as §1

[4] = compound: FC(F)(F)C(F)(F)C(F)(F)CC1CO1 [1H,1H-Heptafluorobutyl epoxide]; conditions: in DMSO
Procedure: as §1

[5] = compound: NS(=O)(=O)C(F)(F)C(F)(F)C(F)(F)C(F)(F)C(F)(F)C(F)(F)F [Perfluorohexanesulfonamide]; conditions: in DMSO
Procedure: as §1

[6] = compound: O=S(=O)(O)CCC(F)(F)C(F)(F)C(F)(F)C(F)(F)C(F)(F)C(F)(F)F [6:2 Fluorotelomer sulfonic acid]; conditions: in DMSO
Procedure: as §1

Row | Test System | level (log10) ([1]; 6700 nM) | level (log10) ([1]; 20000 nM) | level (log10) ([1]; 60000 nM) | level (log10) [2] | level (log10) ([3]; 6700 nM) | level (log10) ([3]; 20000 nM) | level (log10) ([4]; 6700 nM) | level (log10) ([4]; 20000 nM) | level (log10) ([4]; 60000 nM) | level (log10) ([5]; 6700 nM) | level (log10) ([5]; 20000 nM) | level (log10) ([5]; 60000 nM) | level (log10) ([6]; 6700 nM) | level (log10) ([6]; 20000 nM) | level (log10) ([6]; 60000 nM)
1 | MyoF:Collagen III | 0.008 ± 0.027 | 0.012 ± 0.0057 | 0.006 ± 0.017 | -0.027 ± 0.013 | -0.0365 ± 0.005 | -0.311 ± 0.093 | -0.007 ± 0.011 | -0.012 ± 0.011 | -0.012 ± 0.0042 | 0.009 ± 0.0071 | 0.008 ± 0.0014 | 0.0025 ± 0.0035 | -0.011 ± 0.013 | -0.02 ± 0.017 | -0.0055 ± 0.015
2 | MyoF:Collagen IV | -0.075 ± 0.11 | -0.0395 ± 0.076 | -0.02 ± 0.1 | 0.03 ± 0.047 | 0.0705 ± 0.049 | 0.279 ± 0.09 | -0.0125 ± 0.015 | 0 ± 0.0099 | 0.001 ± 0.035 | 0.0555 ± 0.023 | 0.202 ± 0.025 | 0.408 ± 0.016 | -0.0185 ± 0.033 | -0.006 ± 0.023 | -0.002 ± 0.014
3 | MyoF:PAI-I | -0.0165 ± 0.015 | -0.016 ± 0.0028 | -0.0165 ± 0.005 | -0.0055 ± 0.03 | -0.013 ± 0.016 | -0.075 | -0.005 ± 0.024 | -0.0105 ± 0.012 | 0 ± 0.016 | 0.021 ± 0.016 | 0.0285 ± 0.021 | 0.0575 ± 0.0078 | -0.0035 ± 0.0021 | -0.011 ± 0.0014 | -0.0035 ± 0.015
4 | MyoF:SRB | -0.0025 ± 0.0092 | -0.0015 ± 0.005 | 0.0085 ± 0.012 | -0.0205 ± 0.0035 | -0.0135 ± 0.00071 | -0.131 ± 0.012 | -0.006 ± 0.017 | -0.0045 ± 0.0021 | -0.002 ± 0.0057 | -0.0185 ± 0.0035 | -0.054 ± 0.033 | -0.105 ± 0.0092 | -0.002 ± 0.0014 | 0.0005 ± 0.0092 | -0.0015 ± 0.0021
5 | MyoF:TIMP-1 | -0.036 ± 0.062 | -0.0135 ± 0.066 | -0.017 ± 0.041 | -0.002 ± 0.0014 | 0.049 ± 0.0057 | -0.0605 ± 0.0092 | -0.025 ± 0.018 | -0.023 ± 0.035 | -0.0125 ± 0.015 | 0.019 ± 0.037 | 0.017 ± 0.045 | 0.021 ± 0.051 | -0.032 ± 0.052 | 0.031 ± 0.042 | 0.097 ± 0.011
6 | SAg:CCL2/MCP-1 | -0.001 ± 0.058 | 0 ± 0.025 | 0.0135 ± 0.005 | -0.13 ± 0.04 | 0.02 ± 0.05 | 0.0105 ± 0.033 | 0.0055 ± 0.0035 | -0.009 ± 0.0071 | -0.025 ± 0.017 | -0.0065 ± 0.00071 | -0.0185 ± 0.0035 | -0.085 ± 0.027 | -0.019 ± 0.0085 | -0.015 ± 0.0042 | 0.0035 ± 0.019

— the supplement of paper PMC10331698
